From PMC6114107, “Characterization and validation of Entamoeba histolytica pantothenate kinase as a novel anti-amebic drug target” (International Journal for Parasitology: Drugs and Drug …, 2018) come the findings set out here.

Test [1] relates to E. histolytica trophozoite (HM-1:IMSS cl6). Kind of test: Anti-amebic activity, trophozoite viability (WST-1, 48 h). The test is classed as cell-based, Entamoeba histolytica. As to conditions: HM-1:IMSS cl6 trophozoites, anaerobic, 35.5 °C, mean ± SEM. As for the experimental part: Approximately 1 × 10^4 trophozoites of E. histolytica clonal strain HM-1:IMSS cl6 in 200 μl of BI-S-33 medium were dispensed into each well of a 96-well plate and incubated at 35.5 °C for 2 h. Medium was then removed and replaced with 200 μl of BI-S-33 medium that contained various concentrations of each compound. […] The plate was incubated under anaerobic conditions at 35.5 °C for 48 h. After the medium was removed, 100 μl of pre-warmed Opti-MEM I (Life Technologies, Grand Islands, NY, USA) containing one-tenth volume of WST-1 (Roche, Mannheim, Germany) was added. The viability of trophozoites was estimated by measuring absorbance at 450 nm by SpectraMax® Paradigm® (Molecular Devices, CA, USA). Metronidazole was used as positive control at final concentrations of 0.1–10 μM and 0.5% DMSO as negative control. Each assay was performed in triplicate. IC50 values were calculated by least squares curve fitting of the dose inhibition curves using GraphPad Prism (GraphPad Software Inc., San Diego, USA).
In general terms: Tetrazolium assays rely on reduction of a dye to a coloured formazan, in cell work by metabolically active cells.

The subject of test [2] is MRC-5 cells (human fibroblast). Kind of test: Cytotoxicity against MRC-5 cells (WST-8, 48 h). The test is classed as cell-based. As to conditions: MRC5, MRC-5, 48 h, mean ± SEM, read-out: IC50 Normal human cell (MRC-5). As for the experimental part: Human fibroblast cells, MRC-5, were cultured on 96-well flat bottom plates at a density of 1.5 × 10^4 cells/well with 100 μl of MEM medium (Life Technologie) containing 10% fetal bovine serum (Hana-nesco Bio, Tokyo, Japan) and 1% penicillin-streptomycin (Life Technologies). Cells were incubated at 37 °C with 5% CO2 for 48 h. Approximately 100 μl of MEM medium containing 5 μl of each compound dissolved in 50% DMSO in water were added to each well. After the plates were incubated for 48 h, approximately 10 μl of WST-8 (Dojindo, Kumamoto, Japan) was added to each well and the plate was incubated at 37 °C with 5% CO2 for 2 h. The absorbance was measured at 450 nm by spectrophotometer (SH-9000Lab, Corona Electric, Ibaraki, Japan). Growth of MRC-5 cells was measured in duplicate. Staurosporine (Kitasato Natural Products Library) was used as a positive (cytotoxic) control in a concentration range of 0.5 pM to 0.1 nM IC50 values were calculated as described previously.

The target of test [3] is E. histolytica PanK (EhPanK) recombinant enzyme (Entamoeba histolytica, UniProt B1N2P3). The experiment in a line: biochemical. As for the experimental part: We screened 244 compounds from the Kitasato Natural Products Library for inhibition of EhPanK activity. Initially, each compound was dissolved in 50% DMSO and water at a final concentration of 1 mg/mL. Enzymatic reactions were carried out on a black 384-well microtiter plate with a 20 μL reaction mixture composed of 19 μl enzyme mix (100 μM pantothenate, 100 μM ATP, 50 ng of EhPanK recombinant enzyme in kinase buffer (see above) and 1 μl of the individual compounds (final concentration 50 μg/mL or 25–200 μM) at 37 °C for 2 h. After the kinase reaction, ADP was measured using ADP Hunter™ Plus kinase assay kit as described previously. Inhibition values were measured in triplicate.
Fig. S8. Dose-response data of inhibitors against EhPanK inhibitors. IC50 values were determined by dose-response-inhibition using GraphPad Prism (GraphPad Software Inc., San Diego, USA). Data are shown in mean of three replicates.

For test [4], the target named is T1, E. histolytica pantothenate kinase (Entamoeba histolytica, UniProt B1N2P3). The experiment in a line: Phosphoryl donor specificity of EhPanK. In kind it is biochemical. The conditions noted are these: donor 100 μM, 0.2 mM pantothenate, 10 mM MgCl2, 37 °C, pH 6; relative to ATP; ND = not detected. From the text: EhPanK utilized various nucleoside triphosphates, ATP, CTP, GTP, UTP, dATP, and polyphosphates, as well as deoxynucleotides as phosphoryl donors, with ATP being the best phosphate donor (Table 2).

The target of test [5] is T1, E. histolytica pantothenate kinase. In kind it is biochemical.
The mark [6] stands for this setting: recombinant EhPanK, 100 μM pantothenate, 100 μM ATP, 37 °C, 2 h, mean ± SEM of three replicates, read-out: IC50 against EhPanK activity.
[7] abbreviates: cation 5 mM, 0.2 mM pantothenate, 37 °C, pH 6.0, relative to MgCl2, ND = not detected.

Where two headings read alike, the source gives them in different places.

T1 sequence (B1N2P3 entry or part of it): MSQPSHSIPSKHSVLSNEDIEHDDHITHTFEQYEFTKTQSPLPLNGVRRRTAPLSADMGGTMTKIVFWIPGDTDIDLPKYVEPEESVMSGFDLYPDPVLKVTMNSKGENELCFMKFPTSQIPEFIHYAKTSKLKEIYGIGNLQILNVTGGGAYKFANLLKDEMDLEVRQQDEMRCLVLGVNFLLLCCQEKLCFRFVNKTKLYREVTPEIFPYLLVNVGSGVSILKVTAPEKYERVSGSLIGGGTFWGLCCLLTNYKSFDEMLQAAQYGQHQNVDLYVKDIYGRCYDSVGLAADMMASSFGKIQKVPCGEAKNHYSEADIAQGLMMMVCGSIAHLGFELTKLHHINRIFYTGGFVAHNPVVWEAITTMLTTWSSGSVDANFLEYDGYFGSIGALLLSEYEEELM
Sequence of E. histolytica PanK (EhPanK) recombinant enzyme (B1N2P3 entry or part of it): as above

In general, IC50 refers to the concentration at which inhibition is half-maximal. Turning to `Cc1ncc([N+](=O)[O-])n1CCO` [Metronidazole], the figures for the half-inhibitory concentration (IC50) in test [1] (Entamoeba histolytica) and in test [2] were 0.66 ± 0.05 µM and over 100 µM, respectively.
`CCC1OC(=O)CC(O)C(C)C(O[C@@H]2O[C@H](C)C[C@H](N(C)C)[C@H]2O)C(CC=O)CC(C)C(=O)/C=C/C2(C)OC2C1C` (stereo partly drawn) [Rosamycin]: the values for the concentration for half-maximal inhibition (IC50) in test [3] (setting [6]), in test [1] (Entamoeba histolytica) and in test [2] were 166 ± 2 µM, 56.3 ± 11.7 µM and 34.4 ± 2.71 µM, respectively.
The corresponding values for `CC(=O)[C@H]1O[C@@H](Oc2ccc(/C=C(\C)C(=O)N[C@@H]3[C@H](O)[C@@H](O)[C@H]4OCO[C@H]4[C@@H]3O)cc2O)[C@@H](O)[C@@H]1O` [Hygromycin A] are 194 ± 17.8 µM, 142 ± 16.3 µM and over 196 µM.
On to `O=P(O)(O)OP(=O)(O)OP(=O)(O)O` [Tripolyphosphate], for which the “Relative activity (phosphoryl donor)” value in test [4] stood at 16.9 ± 0.8%.
With `O=C1OC2(OC=C(c3ccccc3)C2=O)c2ccccc21` (stereo not drawn) [Fluorescamine], the 50% inhibitory concentration (IC50) in test [3] (read-out: IC50 against EhPanK activity) worked out at 346 ± 14.7 µM; in test [1] (Entamoeba histolytica), 168 ± 20.1 µM; in test [2], 288 ± 17.8 µM.
Consider `[Ca+2].[Cl-].[Cl-]` [CaCl2], for which the “Relative activity (metal)” value in test [5] (setting [7]) turned out to be 17.0 ± 3.0%.
Take `CC[C@H]1OC(=O)[C@H](C)[C@@H](O[C@H]2C[C@@](C)(OC)[C@@H](O)[C@H](C)O2)[C@H](C)[C@@H](O[C@@H]2O[C@H](C)C[C@H](N(C)C)[C@H]2O)[C@](C)(O)C[C@@H](C)C(=O)[C@H](C)[C@@H](O)[C@]1(C)O` [Erythromycin A]: the half-maximal inhibitory concentration (IC50) in test [3] (setting [6]) was 131 ± 6 µM; in test [1] (Entamoeba histolytica), 156 ± 20.6 µM; in test [2], over 136 µM.
Regarding `CCCCC/C=C\CCC(=O)N[C@H]1[C@H](Oc2c3cc4cc2Oc2ccc(cc2Cl)[C@@H](O[C@@H]2O[C@H](CO)[C@@H](O)[C@H](O)[C@H]2NC(C)=O)[C@@H]2NC(=O)[C@H](NC(=O)[C@@H]4NC(=O)[C@H]4NC(=O)[C@@H](Cc5ccc(c(Cl)c5)O3)NC(=O)[C@H](N)c3ccc(O)c(c3)Oc3cc(O)cc4c3)c3ccc(O)c(c3)-c3c(O[C@H]4O[C@H](CO)[C@@H](O)[C@H](O)[C@@H]4O)cc(O)cc3[C@@H](C(=O)O)NC2=O)O[C@H](CO)[C@@H](O)[C@@H]1O` [Teicoplanin], the IC50 in test [3] (read-out: IC50 against EhPanK activity, recombinant EhPanK, 100 μM pantothenate, 100 μM ATP, 37 °C, 2 h, mean ± SEM of three replicates) stood at 26.3 ± 2.6 µM.
For the compound `[Cl][Cu][Cl]` [CuCl2], the “Relative activity (metal)” value in test [5] (setting [7]) is 84.3 ± 4.7%.
`C[C@H]1O[C@H](O[C@H]2[C@H](O)[C@@H](O)[C@@H](O)[C@H](O)[C@@H]2O)[C@@H](N)C[C@@H]1NC(=N)C(=O)O` [Kasugamycin]: the IC50 in test [3] is 254 ± 4.7 µM; in test [1] (Entamoeba histolytica), 66.2 ± 13.7 µM; in test [2], 87.1 ± 7.22 µM.
As for `CC(/C=C/C(O)=C1/C(=O)CNC1=O)=C\C(C)C1OC2(C)OC(C(=O)C3OC32C)C1C` (stereo not drawn) [Tirandamycin A], the half-inhibitory concentration (IC50) is 229 ± 3.4 µM in test [3] (setting [6]), under 20 µM in test [1] (Entamoeba histolytica), 13.7 ± 4.85 µM in test [1] and 144 ± 3.8 µM in test [2].
Consider `[Cl-].[Cl-].[Zn+2]` [ZnCl2], for which the “Relative activity (metal)” value in test [5] (setting [7]) amounted to 3.9 ± 0.7%.
Regarding `Nc1ncnc2c1ncn2[C@@H]1O[C@H](COP(=O)(O)OP(=O)(O)OP(=O)(O)O)[C@@H](O)[C@H]1O` [ATP], in test [4], the “Relative activity (phosphoryl donor)” value was determined as 100.0 ± 4.1%.
For `[Cl-].[Cl-].[Mg+2]` [MgCl2], the “Relative activity (metal)” value in test [5] (setting [7]) was determined as 100.0 ± 0.0%.
Consider `[Cl][Fe][Cl]` [FeCl2], for which, in test [5] (setting [7]), the “Relative activity (metal)” value is recorded as 72.8 ± 1.7%.
As for `COc1cccc2c1C(=O)C1=C(C[C@@H](CC(=O)O)O[C@@H]1C)C2=O` [O-methylnanaomycin A], the half-maximal inhibitory concentration (IC50) in test [3] (setting [6]) was determined as 284 ± 28.7 µM; in test [2], 19 ± 0.49 µM.
On to Polyphosphate, for which, in test [4], the “Relative activity (phosphoryl donor)” value is listed as 16.2 ± 2.5%.
For the compound `CS[C@H]1SC[C@H]2C(=O)N(C)[C@@H](C(C)C)C(=O)OC[C@@H](NC(=O)c3cnc4ccccc4n3)C(=O)N[C@@H](C)C(=O)N(C)[C@@H]1C(=O)N(C)[C@@H](C(C)C)C(=O)OC[C@@H](NC(=O)c1cnc3ccccc3n1)C(=O)N[C@@H](C)C(=O)N2C` [Echinomycin], the IC50 in test [3] (setting [6]) was 77.8 ± 4.4 µM; in test [2], under 0.38 µM.
As to `[H]/N=C(/N)N[C@H]1[C@H](O)[C@@H](O)[C@H](O[C@@H]2O[C@@H](C)[C@](O)(C=O)[C@H]2O[C@@H]2O[C@@H](CO)[C@H](O)[C@@H](O)[C@@H]2NC)[C@@H](N/C(N)=N\[H])[C@@H]1O` [Streptomycin], the IC50 was 155 ± 10.1 µM in test [3] (setting [6]), 77.5 ± 1.52 µM in test [1] (Entamoeba histolytica) and over 172 µM in test [2].
Turning to `Cc1cn([C@H]2C[C@H](O)[C@@H](COP(=O)(O)OP(=O)(O)OP(=O)(O)O)O2)c(=O)[nH]c1=O` [TTP], in test [4], the “Relative activity (phosphoryl donor)” value turned out to be 5.4 ± 1.9%.
Still for that read-out and setting: in the case of `Nc1ncnc2c1ncn2[C@H]1C[C@H](O)[C@@H](COP(=O)(O)OP(=O)(O)OP(=O)(O)O)O1` [dATP] it was 19.3 ± 4.3%; in that of `Nc1ccn([C@@H]2O[C@H](COP(=O)(O)OP(=O)(O)OP(=O)(O)O)[C@@H](O)[C@H]2O)c(=O)n1` [CTP], 1.4 ± 0.2%.
Take `CC(/C=C/C(=O)NO)=C\[C@@H](C)C(=O)c1ccc(N(C)C)cc1` [Trichostatin]: the concentration for half-maximal inhibition (IC50) in test [3] (setting [6]) was found to be 310 ± 14.9 µM; in test [2], 2.62 ± 0.49 µM.
As for LiCl2, the “Relative activity (metal)” value in test [5] (setting [7]) came to 34.5 ± 1.8%.
Turning to `[Cl][Mn][Cl]` [MnCl2], the “Relative activity (metal)” value in test [5] (setting [7]) amounted to 83.2 ± 2.0%.
Turning to `O=c1ccn([C@@H]2O[C@H](COP(=O)(O)OP(=O)(O)OP(=O)(O)O)[C@@H](O)[C@H]2O)c(=O)[nH]1` [UTP], the “Relative activity (phosphoryl donor)” value in test [4] came to 16.6 ± 1.2%.
With `[Cl-].[Cl-].[Co+2]` [CoCl2], the “Relative activity (metal)” value in test [5] (pH 6) is 74.2 ± 6.1%.
Take `Nc1nc2c(ncn2[C@@H]2O[C@H](COP(=O)(O)OP(=O)(O)OP(=O)(O)O)[C@@H](O)[C@H]2O)c(=O)[nH]1` [GTP]: in test [4], the “Relative activity (phosphoryl donor)” value is 78.8 ± 4.9%.
As for `O=C(Cc1cccs1)N[C@@H]1C(=O)N2C(C(=O)[O-])=C(C[n+]3ccccc3)CS[C@H]12` [Cephaloridine], the half-maximal inhibitory concentration (IC50) stood at 230 ± 10.1 µM in test [3] (setting [6]), 246 ± 34.9 µM in test [1] (Entamoeba histolytica) and 48.2 ± 3.61 µM in test [2].
As for `NC[C@@H]1O[C@H](O[C@H]2[C@@H](O)[C@H](O[C@@H]3[C@@H](O)[C@H](N)C[C@H](N)[C@H]3O[C@H]3O[C@H](CN)[C@@H](O)[C@H](O)[C@H]3N)O[C@@H]2CO)[C@H](N)[C@@H](O)[C@@H]1O` [Neomycin], the IC50 in test [3] (setting [6]) was 147 ± 6.8 µM; in test [1] (Entamoeba histolytica), under 20 µM; in test [1], 10.6 ± 1.12 µM; in test [2], over 163 µM.
